Measured values published in patent US20020151522A1, “Regulation of weight” (priority 2001, published 2002).
Like-named read-outs stand apart in the source and are kept apart here.

B1: BDNF: brain-derived neurotrophic factor (protein, UniProt P23560 19-247, looked up)
Neurotrophic factor BDNF …: APMKEANIRGQGGLAYPGVRTHGTLESVNGPKAGSRGLTSLADTFEHVIEELLDEDQKVRPNEENNKDADLYTSRVMLSSQVPLEPPLLFLLEEYKNYLDAANMSMRVRRHSDPARRGELSVCDSISEWVTAADKKTAVDMSGGTVTVLEKVPVSKGQLKQYFYETKCNPMGYTKEGCRGIDKRHWNSQCRTTQSYVRALTMDSKKRIGWRFIRIDTSCVCTLTIKRGR
B2: GDNF: glial-derived neurotrophic factor (protein, UniProt P39905 78-211, looked up)
Glial cell line-derived …: SPDKQMAVLPRRERNRQAAAANPENSRGKGRRGQRGKNRGCVLTAIHLNVTDLGLGYETKEELIFRYCSGSCDAAETTYDKILKNLSRNRRLVSDKVGQACCRPIAFDDDLSFLDDNLVYHILRKHSAKRCGCI

Columns and labels:
[1] = Body weight gain over 14 days after unilateral fimbria-fornix lesion with daily intracerebroventricular infusion; type: in vivo, rat; details: male Wistar rats, fimbria-fornix lesion/cannulation; icv 2 μL daily for 14 days; GPE 3 μg/day, IGF-I 20 μg/day, NGF 1 μg/day
Description: A group of male Wistar rats weighing 174-193 g (University of Auckland, Animal Resources Unit) were divided randomly into the following groups: “control”, “sham”, “vehicle”, “GPE”, “IGF-I”, and “NGF”, depending on the treatment each animal was to undergo. “Control” animals were weighed at the first and last time points and were not treated or handled at any other time. “Sham” animals underwent a sham surgery of anesthesia, incision through the scalp skin, drill hole through the skull, bone wax to seal the drill hole, and sutures for the skin incision. They were then handled daily in mock infusions to mimic handling of animals that received lesions and intracerebroventricular infusions.
“Vehicle”, “GPE”, “IGF-I”, and “NGF” animals were anaesthetized with 75 mg/Kg sodium pentobarbital and positioned in a stereotaxic apparatus (Kopf Instruments, USA), and underwent unilateral fimbria-fomix lesions to lesion septal cholinergic neurons and chronic cannula implantation into the left lateral cerebral ventricle. Fomix-fimbria lesions were performed by transecting the fimbria-fornix projection using a specialized retractable wire Scouten knife (Kopf Instruments) designed to minimize tissue damage except at the required lesion site. Anaesthetized animals received an incision through their scalp skin and a small drill hole was made in the skull at the stereotaxic coordinates anterior-posterior (AP) axis −1.0 mm from the bregma and medial-lateral (ML) axis +2.5 mm from midline (left side), from an atlas of the rat brain (Paxinos et al. (1986), “The rat brain in stereotaxic coordinates”, Academic Press, London). The knife was lowered into the brain through the drill hole to the coordinate +6.0 mm ventral to the skull on the dorsal-ventral (DV) axis. The knife blade was then extended 2.5 mm toward midline at an angle of 30° caudal to the bregma. The knife, with blade extended, was then raised 4.5 mm dorsally to axotomize the fimbriafomix fibres. The blade was then retracted, the knife lowered 4.5 mm to its original coordinate, and the process was repeated. […]

[2] = Weight gain in human patient suffering from a head injury, central administration for 14 days; type: in vivo
Description: GPE in a dose of 10 μg/Kg/day is administered via lateral cerebroventricular injection into the brain of a human patient suffering from a head injury to promote weight gain to normal levels. Alternatively, a GPE analog is administered. Treatment is commenced as soon as possible after the head injury and then for 14 days thereafter.
A GPE analog in a dose of 20 μg/Kg/day is administered via focal injection into the lateral cerebral ventricle of a human patient suffering from a head injury to promote weight gain to normal levels. Alternatively, GPE is administered. Treatment is commenced as soon as possible after the head injury and then for 14 days thereafter.
GPE in a dose of 5 μg/Kg/day is administered via a surgically inserted shunt into the lateral cerebral ventricle of a human patient suffering from a head injury to promote weight gain to normal levels. Alternatively, a GPE analog is administered. Treatment is commenced as soon as possible after the head injury and then for 14 days thereafter.

[3] = intravenous, humans after moderate to severe head injury; cited from earlier work
[4] = administered into the brain, adult rats after transient forebrain ischemia; cited from earlier work
[5] = intracerebroventricular, patients with Alzheimer's disease; cited from earlier work
[6] = infused in the brain of adult rats with partial or full lesions, e.g. partial fimbria-fornix transection; cited from earlier work
[7] = administered to the brain of normal, unlesioned rats; cited from earlier work

Molecule	weight gain over the 14 days [1]	effect on body weight [6]	effect on body weight [7]	also measured
NCC(=O)N1CCC[C@H]1C(=O)N[C@@H](CCC(=O)O)C(=O)O [GPE, glycyl-L-prolyl-L-glutamic acid]	the normally expected weight gain occurred			weight gain in the patient ([2]; 5 μg/Kg/day via surgically inserted shunt into the lateral cerebral ventricle): Normal weight gain is promoted; weight gain in the patient ([2]; 10 μg/Kg/day via lateral cerebroventricular injection): Normal weight gain is promoted; weight gain in the patient ([2]; 20 μg/Kg/day via focal injection into the lateral cerebral ventricle): Normal weight gain is promoted
IGF-I: insulin-like growth factor I	minimal weight gain			effect on body weight [3]: cause weight gain; effect on body weight [4]: cause weight gain
NGF: Nerve growth factor	no weight gain	either decrease normal body weight gain or cause weight loss	cause weight loss	effect on body weight [5]: marked weight reduction
bFGF: basic fibroblast growth factor		either decrease normal body weight gain or cause weight loss		
B1		either decrease normal body weight gain or cause weight loss	cause weight loss	
B2		either decrease normal body weight gain or cause weight loss	cause weight loss	
